Where two headings read alike, the source gives them in different places. Positions of bridges follow the written chain, without caps; N, C: chain ends. Residues, ends and D or L forms follow the SMILES beside them. No end group written: not given here.
Legend:
Grb7-SH2 domain [1] = molecular target: T1, Grb7-SH2 domain (Homo sapiens, UniProt Q14451); test: Surface plasmon resonance (SPR) binding to Grb7-SH2 domain; settings: for Kd: SPR BIAcore T100, GST-Grb7-SH2 captured via anti-GST antibody on CM5 chip, 50mM Na3PO4, 150–300 mM NaCl, 1 mM DTT pH 7.4, peptides without Penetratin, 0.015 to 250 μM, triplicate injections, steady-state, single-site binding model, errors are SD from model, SD, read-out: equilibrium dissociation binding constant (KD)
T1 construct: made in house
Experimental: GST and GST-Grb7-SH2 proteins were expressed and purified as previously described. Briefly, Grb7-SH2 was expressed as a GST fusion, and protein was purified via GST affinity chromatography, followed by size exclusion chromatography.
SPR experiments were carried out as previously described using the BIAcore T100 [23, 26]. BIAcore CM5 series S sensor chips (GE Life Sciences, Paramatta, NSW, Australia) were utilised. Amine coupling was used to immobilise the anti-GST antibody (Abcam, Cambridge, UK) to all flow cells. The immobilisation levels were between 11,000 RU and 7700 RU. As a control, the first flow cell captured only GST. GST-Grb7-SH2 was immobilised on flow cell 2 at close to 2800 RU. Peptides were resuspended in an analysis buffer consisting of 50mM Na3PO4, 150–300 mM NaCl, and 1 mM DTT (pH 7.4). The peptide was injected over flow cells at 30 μL/min for 60–80 s in triplicates. Double-referenced SPR data were analysed using Scrubber 2.0 (BioLogic Software, Campbell, ACT, Australia) and Prism 9.2.0 (GraphPad Prism v9.0, San Diego, CA, USA).
Here, it should be noted that the peptides were tested in the absence of the Penetratin tail shown in the schematic (Figure 1). In brief, peptides, at a range of concentrations, flowed over the chip surface to which the Grb7-SH2 domain was tethered, and the response was detected over time. […] In order to quantitate the binding affinities, the equilibrium dissociation binding constants (KD) for each peptide were calculated using binding curves derived from the sensogram responses at equilibrium (Figure 2E).
Figure 2 SPR binding analysis of newly developed Grb7-SH2-targeting peptides. […] Errors are SD arising from model.

Grb7-SH2 domain [2] = molecular target: T1, Grb7-SH2 domain; settings: earlier work; cited from earlier work
Text: Three peptides were designed with Phe-Pro, Phe-Trp, or Phe-Arg incorporated at positions 9 and 10 of the amino acid sequence. […] Thus, it can be concluded that the lactam linkage confers a degree of rigidity sufficient to enha ...
Target sequence in this assay (Q14451 431-527 limits assumed): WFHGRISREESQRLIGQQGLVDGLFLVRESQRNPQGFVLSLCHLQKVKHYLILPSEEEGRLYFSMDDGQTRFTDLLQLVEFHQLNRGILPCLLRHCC

[3] = not told; cited from earlier work
GST-Grb7-SH2 = molecular target: T2, GST-Grb7-SH2 (UniProt Q14451 415-532); test: SPR; BIAcore T100, CM5 chip; GST-Grb7-SH2 held (close to 2800 RU) on amine-coupled anti-GST antibody, GST alone on the reference flow cell; peptides 0.015 to 250 uM injected at 30 uL/min for 60-80 s in triplicates; 50 mM Na3PO4, 150-300 mM NaCl, 1 mM DTT, pH 7.4; KD from steady-state responses, single-site binding model; settings: both partners purified
T2 construct: Captured on the chip by an anti-GST antibody; also called Grb7-SH2 domain
T2 sequence (Q14451 415-532): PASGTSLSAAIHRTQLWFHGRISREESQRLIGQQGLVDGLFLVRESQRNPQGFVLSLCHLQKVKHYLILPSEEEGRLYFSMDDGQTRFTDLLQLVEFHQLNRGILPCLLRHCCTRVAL

With NC(=O)C[C@@H]1NC(=O)[C@H](CC(=O)O)NC(=O)[C@H](Cc2ccc(O)cc2)NC(=O)CNC(=O)[C@H](CCC(=O)O)NC(=O)[C@H](Cc2ccccc2)NC(=O)[C@@H]2CCCCNC(=O)CC[C@H](NC1=O)C(=O)N[C@@H](Cc1ccccc1)C(=O)N1CCC[C@H]1C(=O)N[C@H](C(N)=O)CSCC(=O)N2 [G7-B8] ({CH2CO}-KFEGYDNEFPC-NH2; lactam 1-8; thioether N-11; C-terminus assumed) the Kd (Grb7-SH2 domain [1]) was 860 ± 80 nM and the “fold increase in affinity over G7-18NATE” value (Grb7-SH2 domain [1]; ratio of SPR KD values) was “approximately 8 fold”.

Molecule NC(=O)C[C@@H]1NC(=O)[C@H](CC(=O)O)NC(=O)[C@H](Cc2ccc(O)cc2)NC(=O)CNC(=O)[C@H](CCC(=O)O)NC(=O)[C@H](Cc2ccccc2)NC(=O)[C@@H]2CCCCNC(=O)CC[C@H](NC1=O)C(=O)N[C@@H](Cc1ccccc1)C(=O)N[C@@H](Cc1c[nH]c3ccccc13)C(=O)N[C@H](C(N)=O)CSCC(=O)N2 [G7-B9] ({CH2CO}-KFEGYDNEFWC-NH2; lactam 1-8; thioether N-11; C-terminus assumed) has a Kd (Grb7-SH2 domain [1]) of 2680 ± 390 nM.

N=C(N)NCCC[C@@H]1NC(=O)[C@H](Cc2ccccc2)NC(=O)[C@@H]2CCC(=O)NCCCC[C@H](NC(=O)CSC[C@@H](C(N)=O)NC1=O)C(=O)N[C@@H](Cc1ccccc1)C(=O)N[C@@H](CCC(=O)O)C(=O)NCC(=O)N[C@@H](Cc1ccc(O)cc1)C(=O)N[C@@H](CC(=O)O)C(=O)N[C@@H](CC(N)=O)C(=O)N2 [G7-B10] ({CH2CO}-KFEGYDNEFRC-NH2; lactam 1-8; thioether N-11; C-terminus assumed) showed a Kd (Grb7-SH2 domain [1]) of 1150 ± 408 nM.

In the case of “G7-B1: bicyclic G7 peptide with O-allylserine-based olefin staple between positions 1 and 8 (SFEGYDNSFPC; bicyclic: O-allylserine at positions 1 and 8 (parent Ser) joined by olefin staple (ring-closing metathesis); thioether linkage from N-terminal amine (acetyl/CH2CO) to Cys11 side chain; C-terminal amid)”, the Kd (Grb7-SH2 domain [2]) is given as 1500 nM.

In the case of “KFEGYDNEC (also: bicyclic or more (positions not given here)) [G7-B7]”, the membrane permeability [3] is given as “membrane-impermeable”.

B1: G7-18NATE (peptide)
peptide: WFEGYDNTFPC
modifications: cyclic: thioether linkage that tethers the N-terminal amine to the cysteine side chain
notes: non-phosphorylated cyclic peptide of 11 amino acids identified by phage display; also called first-generation monocyclic peptide; source: synthetic peptide, bought: Purar Chemicals (RP-HPLC, >95% purity)
With B1 the Kd (GST-Grb7-SH2) was 7830 nM.

Source: PMC9138261, “Enhancing the Bioactivity of Bicyclic Peptides Targeted to Grb7-SH2 by Restoring Cell Permeability” (Biomedicines, 2022)
